Test results from patent publication US12577231B2, “Androgen receptor PROTACS” (GlaxoSmithKline Intellectual Property Development Limited, priority 2023, dated 2026).

Columns and labels:
Androgen receptor F877L = molecular target: T1, Androgen receptor F877L (Homo sapiens, UniProt P10275, F877L); assay: Degradation of overexpressed Androgen Receptor in A549 cells (HiBiT), F877L; assay type: cell-based; conditions: A549 cells overexpressing AR F877L, cycloheximide, 24 hours
T1 construct: expressed in transfected cells; host or cells: A549, transduced, puromycin selected
T1 sequence (P10275 1-920 F877L): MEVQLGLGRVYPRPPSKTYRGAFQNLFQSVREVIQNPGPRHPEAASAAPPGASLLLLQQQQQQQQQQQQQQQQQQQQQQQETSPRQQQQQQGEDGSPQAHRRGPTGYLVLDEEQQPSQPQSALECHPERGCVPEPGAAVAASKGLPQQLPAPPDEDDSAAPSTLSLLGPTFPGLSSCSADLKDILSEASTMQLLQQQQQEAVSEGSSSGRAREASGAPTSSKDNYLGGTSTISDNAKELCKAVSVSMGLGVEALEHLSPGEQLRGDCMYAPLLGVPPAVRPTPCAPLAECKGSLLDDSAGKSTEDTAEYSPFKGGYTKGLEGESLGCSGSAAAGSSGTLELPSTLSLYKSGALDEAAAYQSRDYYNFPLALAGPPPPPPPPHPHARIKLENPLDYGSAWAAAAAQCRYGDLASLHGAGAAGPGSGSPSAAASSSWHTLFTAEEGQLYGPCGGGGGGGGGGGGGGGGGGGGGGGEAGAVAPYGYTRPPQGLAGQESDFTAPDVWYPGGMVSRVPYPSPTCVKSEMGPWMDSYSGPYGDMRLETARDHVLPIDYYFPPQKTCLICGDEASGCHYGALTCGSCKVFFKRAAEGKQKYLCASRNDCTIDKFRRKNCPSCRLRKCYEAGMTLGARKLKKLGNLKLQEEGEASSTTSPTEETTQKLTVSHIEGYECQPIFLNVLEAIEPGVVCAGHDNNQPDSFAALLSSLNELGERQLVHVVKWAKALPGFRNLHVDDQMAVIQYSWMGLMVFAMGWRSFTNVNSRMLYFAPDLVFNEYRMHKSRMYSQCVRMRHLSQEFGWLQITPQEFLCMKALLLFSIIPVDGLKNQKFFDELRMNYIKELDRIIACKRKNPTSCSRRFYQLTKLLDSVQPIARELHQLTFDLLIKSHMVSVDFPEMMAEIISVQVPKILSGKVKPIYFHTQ
Procedure: A549 cells were transduced to express wild type androgen receptor and Androgen receptor containing the following mutations (L702H, H875Y W742C W742L F877L, T878A and T878A/H875Y) with HiBiT tags. Transduced cells following puromycin selection were maintained in a humidified incubator (at 37° C. and 5% CO2 in the DMEM medium supplemented with 1% (v/v) Pen/Strep, 1% (v/v) Glutamax and 10% (v/v) FBS. A549 cells expressing each AR construct were detached from plate and counted. Cell suspensions at density 0.2 million per mL were prepared. Cell suspension was supplemented with 100 μg/mL of cycloheximide to block protein synthesis. Cells were preincubated with cycloheximide for 1 hr before seeding. Cells were seeded onto 384-well plate at density of 5,000 in 25 μL per well. A two fold serial dilution of test compounds, starting from 1 μM (row A) in 2-fold serial dilution series across the column using Tecan D300e dispenser. […]
Nano-Glo HiBiT Lytic reagent was prepared by adding LgBiT protein and Nano-Glo® substrate to lytic buffer pre-equilibrated at room temperature following manufacturer protocol (https://www.promega.co.uk/resources/protocols/technical-manuals/101/nanoglo-luciferase-assay-system-protocol). […] The plates were then centrifuged (100×G, 1 min) and incubated on shaker for 10 mins before taking readings on Pherastar Luminescence microplate reader. […]

[1] = test system: Androgen Receptor in human prostate cancer cell lines; assay: Androgen Receptor Degradation-Imaging Assay, all prostate cancer cell lines (FIG. 2); assay type: cell-based; conditions: 16 hours treatment
Procedure: Degradation of Androgen Receptor (AR) protein in human prostate cancer cell lines (MDA-PCa-2b (AR T878A/L702H), LNCaP (AR T878A), VCaP (AR wild type and amplified) 22RV1 (AR H875Y) and PC3 (AR negative control)) treated with AR PROTACs was quantified using immunofluorescence. Prostate cancer cells were plated (MDA-PCa-2b, and VCaP 16,000 cells/well; LNCaP and 22RV1 32,000 cells/well, and PC3 8,000 cells/well) in an optical bottom 96-well cell culture plate and allowed to attach overnight. The prostate cancer cell lines were treated for 16 hours with a 10-point 3-fold dilution series (dose range=0.02 nM to 333 nM). PC3 is included as an AR negative control and not treated with compound. […] Following washes with IF buffer, cells were incubated with fluorescent secondary antibody (Goat anti-rabbit Alexa 647; commercially available from Invitrogen) and Hoechst nuclear stain (commercially available from Themo Scientific) prior to quantification of nuclear AR levels via Opera Phenix high-content fluorescent imager using a 40× water objective. […]
The averaged nuclear Alexa 647 median fluorescence intensity (MFI) of PC3 cells is subtracted from the nuclear Alexa 647 MFI of PROTAC treated and DMSO control treated cells. % AR remaining is calculated for PROTAC treatments as a percent of the DMSO control (MFI PROTAC treated/MFI DMSO control treated)*100). […]

Summary pXC50 (Androgen receptor F877L): 8.84
SMILES: COc1cc(O[C@H]2C(C)(C)[C@H](NC(=O)c3ccc(N4CCC(CN5CCC(n6ncc7c(N8CCC(=O)NC8=O)nccc76)CC5)CC4)c(F)c3)C2(C)C)ccc1C#N [Example 20, N-((1r,3r)-3-(4-Cyano-3-methoxyphenoxy)-2,2,4,4-tetramethylcyclobutyl)-4-(4-((4-(4-(2,4-dioxotetrahydropyrimidin-1(2H)-yl)-1H-pyrazolo[4,3-c]pyridin-1-yl)piperidin-1-yl)methyl)piperidin-1-yl)-3-fluorobenzamide]
percentage of Androgen Receptor remaining versus concentration (FIG. 2) [1]: Good reductions
